From patent US6339078B1, “Methods of prevention and treatment of ischemic damage” (University of Florida Research Foundation, Inc., priority 1999, dated 2002)
Entries after “also recorded” stand apart in the source; their conditions may differ.

How the values were obtained:
[1] = system: ovariectomized rats, ischemia induced by middle cerebral artery occlusion (MCAO); test: Ischemic area in brain slices after MCAO, estrogen pretreatment; assay type: in vivo, rat; settings: for reduction of ischemic area vs sham: Silastic tube 24 h prior to MCAO, sacrifice 24 h after MCAO
[2] = system: ovariectomized rats, ischemia induced by middle cerebral artery occlusion (MCAO); test: Ischemic area in brain slices after MCAO, estrogen post-treatment at 40 or 90 minutes; assay type: in vivo, rat; settings: administered 90 minutes after MCAO
[3] = system: ovariectomized rats, ischemia induced by middle cerebral artery occlusion (MCAO); test: Ischemic lesion volume (TTC) after MCAO, post-treatment at 0.5-4 hours; assay type: in vivo, rat; settings: iv 100 μg/kg HPCD-complexed plus Silastic pellet at 0.5, 1, 2, or 3 hours post-occlusion; 48 hours after MCAO
[4] = system: primary rat brain capillary endothelial cells (BCEC); test: BCEC mortality under hypoglycemia (Trypan blue); assay type: cell-based; settings: 2 nM; normal glucose 200 mg %
Description: Hypoglycemia experiments were undertaken. […] The glucose concentration of the culture media was then adjusted from 20 mg % to 200 mg % by adding appropriate amount of D-(+)-glucose to the glucose-free media and monitored by Glucose and L-Lactate Analyzer (YSI model 2300 STAT plus, YSI, Inc., Yellow Springs, Ohio). The hypoglycemic cultures were maintained for 24 hours or 48 hours prior to staining with Trypan blue. Cell mortality was counted using Trypan blue staining method. Cell death percentage was calculated as dead cell/alive cell×100%. Statistical methods used included two-way analysis of variance, applied to determine the significance of the difference among the experimental groups. Kruskal-Wallis nonparametric analysis was used for data presented as percentage. […] P<0.05 was considered significant.

[5] = Blood levels after single subcutaneous bolus injection in corn oil (radioimmunoassay); assay type: in vivo, male Sprague-Dawley rats; settings: 100 μg/kg sc in corn oil
Description: The drug was dissolved in corn oil at 100 μg/ml and the final dosage delivered was 100 μg/kg. […] Venous blood was collected into heparinized tubes, centrifuged and the plasma was collected and frozen. Levels of 17β-estradiol were determined using a commercially supplied radioimmunoassay kit.

[6] = system: primary rat brain capillary endothelial cells (BCEC); test: BCEC mortality under combined anoxia and hypoglycemia (Trypan blue); settings: 2 nM; 100 mg % hypoglycemia and anoxia 2 hours
Description: Cell media contained 200 mg % or 100 mg % glucose. Culture dishes containing BCEC were placed in either an incubator or a nitrogen filled chamber for two hours. Trypan blue staining was used to distinguish live cells from dead cells. Two cell countings at two different hemacytometer squares were averaged. Mean±SEM are depicted (n=8.12). *<0.05 vs. corresponding vehicle control.
Nitrogen gas was influxed to replace the oxygen inside the chamber. The chamber was sealed and placed in the incubator for four hours for nonhypoglycemic cultures and 2 hours for hypoglycemic cultures.
Cell mortality was counted using Trypan blue staining method. Cell death percentage was calculated as dead cell/alive cell×100%.
Statistical methods used included two-way analysis of variance, applied to determine the significance of the difference among the experimental groups. Kruskal-Wallis nonparametric analysis was used for data presented as percentage. […] P<0.05 was considered significant.

| SMILES | ischemic area, percent of cross-sectional area of brain sections evaluated ([1]; pretreatment 24 h prior to MCAO, 3 brain slices, sham 25.6±5.7%) [%] | protective effect on ischemic area (in words) ([1]; tissue slices A-D, subcutaneous injection two hours prior to ischemic event) | reduction of ischemic area [2] [%] | protection, ischemic lesion volume (in words) [3] | difference in % cell death with and without estrogen (in words) [4] | blood level ([5]; 30 minutes after administration (peak)) | blood level ([5]; 4 hours) | blood level (in words) ([5]; by 25 hours) | protection of BCEC (in words) [6] | reduction of ischemic area vs sham ([1]; slice C) [%] | reduction of ischemic area vs sham ([1]; slice D) [%] | reduction of ischemic area vs sham ([1]; slice E) [%] | protective effect on ischemic area (in words) ([1]; tissue slices A-E, sustained subcutaneous delivery initiated 24 hours prior) |
| --- | --- | --- | --- | --- | --- | --- | --- | --- | --- | --- | --- | --- | --- |
| C[C@]12CC[C@@H]3c4ccc(O)cc4CC[C@H]3[C@@H]1CC[C@@H]2O [17β-estradiol] | 9.8±4.0 | significant protective effect | 31 | significant protection | little difference | 4,610 pg/ml | 2,004 pg/ml | near zero | effective in protecting cultured BCEC | – | – | – | – |
| C[C@]12CC[C@@H]3c4ccc(O)cc4CC[C@H]3[C@@H]1CC[C@H]2O [17α-estradiol] | – | – | – | – | – | – | – | – | – | 55 | 66 | 81 | significant protective effect; also recorded: smaller ischemic areas compared with the sham treated animals in all slices evaluated |
